Measured values reported in PubChem BioAssay AID248 (DTP/NCI, 2004).
“And” between values parts separate entries of the source, which are not always exact repeats. Equal values may be shown once. Toxic doses and inconclusive results are not listed. No stated cut-off is given here; in the data, active means T/C of 150% or more; inactive means T/C below 125%.

System: L1210 leukemia ip in BDF1 mice, survival T/C
Experiment: NCI In Vivo Anticancer Drug Screen. Data for tumor model L1210 Leukemia (intraperitoneal) in B6D2F1 (BDF1) mice
Conditions: higher = longer survival
Summary of the method: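 Survival endpoint. Drug-treated group vs vehicle group, expressed as T divided by C. Tumor passaged by transplantation.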

Measured: T/C

S=c1nc[nH]c2nc[nH]c12
inactive: endpoint: mean survival time, dose: 0.15 mg/kg/injection, schedule: Q01DX001 (ip), vehicle: other 102 % of control | endpoint: mean survival time, dose: 0.15 mg/kg/injection, schedule: Q01DX Z (ip), vehicle: other 98 % of control | endpoint: mean survival time, dose: 0.3 mg/kg/injection, schedule: Q01DX001 (ip), vehicle: other 101 % of control | endpoint: mean survival time, dose: 0.3 mg/kg/injection, schedule: Q01DX Z (ip), vehicle: other 101 % of control | endpoint: mean survival time, dose: 0.6 mg/kg/injection, schedule: Q01DX001 (ip), vehicle: other 93 % of control and 101 % of control | endpoint: mean survival time, dose: 0.6 mg/kg/injection, schedule: Q01DX Z (ip), vehicle: other 96 % of control | endpoint: mean survival time, dose: 0.63 mg/kg/injection, schedule: Q01DX015 (ip), vehicle: alkali diluted with saline 95 % of control | endpoint: mean survival time, dose: 1.1 mg/kg/injection, schedule: Q01DX001 (ip), vehicle: other 104 % of control | endpoint: mean survival time, dose: 1.25 mg/kg/injection, schedule: Q01DX015 (ip), vehicle: alkali diluted with saline 95 % of control | endpoint: mean survival time, dose: 1.3 mg/kg/injection, schedule: Q01DX001 (ip), vehicle: other 101 % of control | endpoint: mean survival time, dose: 1.3 mg/kg/injection, schedule: Q01DX Z (ip), vehicle: other 102 % of control | endpoint: mean survival time, dose: 1.9 mg/kg/injection, schedule: Q01DX009 (ip), vehicle: alkali diluted with saline 107 % of control | endpoint: mean survival time, dose: 2.0 mg/kg/injection, schedule: Q01DX001 (ip), vehicle: carboxymethylcellulose (CMC) 107 % of control | endpoint: mean survival time, dose: 2.2 mg/kg/injection, schedule: Q01DX001 (ip), vehicle: other 104 % of control | endpoint: mean survival time, dose: 2.5 mg/kg/injection, schedule: Q01DX015 (ip), vehicle: alkali diluted with saline 100 % of control | endpoint: mean survival time, dose: 2.5 mg/kg/injection, schedule: Q01DX Z (ip), vehicle: other 107 % of control | endpoint: mean survival time, dose: 3.8 mg/kg/injection, schedule: Q01DX009 (ip), vehicle: alkali diluted with saline 105 % of control | endpoint: mean survival time, dose: 3.8 mg/kg/injection, schedule: Q03DX Z (ip), vehicle: other 108 % of control | endpoint: mean survival time, dose: 4.0 mg/kg/injection, schedule: Q01DX001 (ip), vehicle: carboxymethylcellulose (CMC) 98 % of control | endpoint: mean survival time, dose: 4.4 mg/kg/injection, schedule: Q01DX001 (ip), vehicle: other 102 % of control | endpoint: mean survival time, dose: 5.0 mg/kg/injection, schedule: Q01DX015 (ip), vehicle: alkali diluted with saline 103 % of control | endpoint: mean survival time, dose: 5.0 mg/kg/injection, schedule: Q01DX Z (ip), vehicle: alkali diluted with saline 104 % of control and 110 % of control | endpoint: mean survival time, dose: 7.5 mg/kg/injection, schedule: Q01DX009 (ip), vehicle: alkali diluted with saline 101 % of control | endpoint: mean survival time, dose: 7.5 mg/kg/injection, schedule: Q01DX009 (ip), vehicle: saline 103 % of control | endpoint: mean survival time, dose: 7.5 mg/kg/injection, schedule: Q03DX Z (ip), vehicle: other 111 % of control | endpoint: mean survival time, dose: 8.0 mg/kg/injection, schedule: Q01DX001 (ip), vehicle: carboxymethylcellulose (CMC) 95 % of control | endpoint: mean survival time, dose: 8.0 mg/kg/injection, schedule: Q04DX002 (ip), vehicle: alkali diluted with saline 105 % of control and 106 % of control | endpoint: mean survival time, dose: 10.0 mg/kg/injection, schedule: Q01DX006 (iv), vehicle: other 103 % of control | endpoint: mean survival time, dose: 10.0 mg/kg/injection, schedule: Q01DX009 (oral), vehicle: saline with Tween-80 102 % of control and 107 % of control | endpoint: mean survival time, dose: 10.0 mg/kg/injection, schedule: Q01DX015 (ip), vehicle: alkali diluted with saline 101 % of control | endpoint: mean survival time, dose: 10.0 mg/kg/injection, schedule: Q01DX Z (ip), vehicle: alkali diluted with saline 110 % of control | endpoint: mean survival time, dose: 10.0 mg/kg/injection, schedule: Q01DX Z (sc), vehicle: other 111 % of control | endpoint: mean survival time, dose: 12.0 mg/kg/injection, schedule: Q04DX003 (ip), vehicle: saline 105 % of control | endpoint: mean survival time, dose: 12.5 mg/kg/injection, schedule: Q01DX009 (ip), vehicle: saline 112 % of control | endpoint: mean survival time, dose: 12.5 mg/kg/injection, schedule: Q01DX017 (ip), vehicle: other 104 % of control | endpoint: mean survival time, dose: 12.5 mg/kg/injection, schedule: Q01DX Z (ip), vehicle: other 105 % of control | endpoint: mean survival time, dose: 15.0 mg/kg/injection, schedule: Q01DX009 (ip), vehicle: saline 112 % of control | endpoint: mean survival time, dose: 16.0 mg/kg/injection, schedule: Q01DX001 (ip), vehicle: carboxymethylcellulose (CMC) 101 % of control | endpoint: mean survival time, dose: 16.0 mg/kg/injection, schedule: Q04DX002 (ip), vehicle: alkali diluted with saline 100 % of control and 102 % of control | endpoint: mean survival time, dose: 18.0 mg/kg/injection, schedule: Q01DX015 (ip), vehicle: alkali diluted with saline 104 % of control | endpoint: mean survival time, dose: 20.0 mg/kg/injection, schedule: Q01DX005 (ip), vehicle: alkali diluted with water 108 % of control and 111 % of control | endpoint: mean survival time, dose: 20.0 mg/kg/injection, schedule: Q01DX006 (iv), vehicle: other 108 % of control | endpoint: mean survival time, dose: 20.0 mg/kg/injection, schedule: Q01DX009 (oral), vehicle: saline with Tween-80 98 % of control and 105 % of control | endpoint: mean survival time, dose: 20.0 mg/kg/injection, schedule: Q01DX Z (ip), vehicle: alkali diluted with saline 110 % of control | endpoint: mean survival time, dose: 20.0 mg/kg/injection, schedule: Q02DX008 (ip), vehicle: alkali diluted with saline 105 % of control | endpoint: mean survival time, dose: 27.0 mg/kg/injection, schedule: Q01DX015 (ip), vehicle: alkali diluted with saline 106 % of control | endpoint: mean survival time, dose: 30.0 mg/kg/injection, schedule: Q04DX003 (ip), vehicle: saline 109 % of control | endpoint: mean survival time, dose: 32.0 mg/kg/injection, schedule: Q01DX001 (ip), vehicle: carboxymethylcellulose (CMC) 101 % of control | endpoint: mean survival time, dose: 32.0 mg/kg/injection, schedule: Q04DX002 (ip), vehicle: alkali diluted with saline 102 % of control and 103 % of control | endpoint: mean survival time, dose: 35.0 mg/kg/injection, schedule: Q01DX011 (ip), vehicle: alkali diluted with saline 108 % of control | endpoint: mean survival time, dose: 40.0 mg/kg/injection, schedule: Q01DX001 (ip), vehicle: alkali diluted with saline 104 % of control | endpoint: mean survival time, dose: 40.0 mg/kg/injection, schedule: Q01DX006 (iv), vehicle: other 111 % of control | endpoint: mean survival time, dose: 40.0 mg/kg/injection, schedule: Q#A X Z (ip), vehicle: other 94 % of control | endpoint: mean survival time, dose: 45.0 mg/kg/injection, schedule: Q06HX012 (ip), vehicle: alkali diluted with saline 96 % of control | endpoint: mean survival time, dose: 53.0 mg/kg/injection, schedule: Q01DX011 (ip), vehicle: alkali diluted with saline 109 % of control | endpoint: mean survival time, dose: 60.0 mg/kg/injection, schedule: Q01DX001 (ip), vehicle: alkali diluted with saline 110 % of control and 111 % of control | endpoint: mean survival time, dose: 60.0 mg/kg/injection, schedule: Q## X015 (ip), vehicle: other 107 % of control | endpoint: mean survival time, dose: 64.0 mg/kg/injection, schedule: Q01DX001 (ip), vehicle: carboxymethylcellulose (CMC) 98 % of control | endpoint: mean survival time, dose: 80.0 mg/kg/injection, schedule: Q01DX Z (ip), vehicle: carboxymethylcellulose (CMC) 105 % of control | endpoint: mean survival time, dose: 90.0 mg/kg/injection, schedule: Q01DX009 (ip), vehicle: carboxymethylcellulose (CMC) 107 % of control | endpoint: mean survival time, dose: 109.0 mg/kg/injection, schedule: Q01DX001 (ip), vehicle: alkali diluted with saline 110 % of control and 112 % of control | endpoint: mean survival time, dose: 109.0 mg/kg/injection, schedule: Q## X001 (ip), vehicle: alkali diluted with saline 111 % of control | endpoint: mean survival time, dose: 112.0 mg/kg/injection, schedule: Q02DX010 (ip), vehicle: carboxymethylcellulose (CMC) 110 % of control | endpoint: mean survival time, dose: 120.0 mg/kg/injection, schedule: Q01DX009 (ip), vehicle: carboxymethylcellulose (CMC) 103 % of control | endpoint: mean survival time, dose: 128.0 mg/kg/injection, schedule: Q01DX001 (ip), vehicle: carboxymethylcellulose (CMC) 95 % of control | endpoint: mean survival time, dose: 129.2 mg/kg/injection, schedule: Q02DX010 (ip), vehicle: carboxymethylcellulose (CMC) 110 % of control | endpoint: mean survival time, dose: 146.0 mg/kg/injection, schedule: Q01DX001 (ip), vehicle: alkali diluted with saline 108 % of control and 112 % of control | endpoint: mean survival time, dose: 151.0 mg/kg/injection, schedule: Q01DX015 (ip), vehicle: other 105 % of control | endpoint: mean survival time, dose: 160.0 mg/kg/injection, schedule: Q01DX009 (ip), vehicle: saline with Tween-80 104 % of control | endpoint: mean survival time, dose: 160.0 mg/kg/injection, schedule: Q01DX Z (im), vehicle: other 102 % of control | endpoint: mean survival time, dose: 200.0 mg/kg/injection, schedule: Q01DX009 (ip), vehicle: Klucel (hydroxypropylcellulose) (HPC) 103 % of control | endpoint: mean survival time, dose: 200.0 mg/kg/injection, schedule: Q01DX009 (ip), vehicle: alkali diluted with saline 108 % of control | endpoint: mean survival time, dose: 200.0 mg/kg/injection, schedule: Q## X009 (ip), vehicle: alkali diluted with saline 108 % of control | endpoint: mean survival time, dose: 202.0 mg/kg/injection, schedule: Q01DX009 (ip), vehicle: alkali diluted with saline 95 % of control | endpoint: mean survival time, dose: 240.0 mg/kg/injection, schedule: Q01DX009 (ip), vehicle: alkali diluted with saline 96 % of control | endpoint: mean survival time, dose: 240.0 mg/kg/injection, schedule: Q03DX Z (ip), vehicle: other 101 % of control | endpoint: mean survival time, dose: 256.0 mg/kg/injection, schedule: Q01DX001 (ip), vehicle: carboxymethylcellulose (CMC) 98 % of control | endpoint: mean survival time, dose: 303.0 mg/kg/injection, schedule: Q04DX003 (ip), vehicle: saline with Tween-80 101 % of control | endpoint: mean survival time, dose: 400.0 mg/kg/injection, schedule: Q04DX003 (ip), vehicle: saline with Tween-80 101 % of control | endpoint: mean survival time, dose: 510.0 mg/kg/injection, schedule: Q04DX002 (ip), vehicle: alkali diluted with saline 96 % of control and 104 % of control | endpoint: mean survival time, dose: 1020.0 mg/kg/injection, schedule: Q07DX Z (ip), vehicle: other 93 % of control | endpoint: mean survival time, dose: 2675.0 micrograms/kg/injection, schedule: Q01DX Z (ip), vehicle: carboxymethylcellulose (CMC) 108 % of control | endpoint: median survival time, dose: 6.25 mg/kg/injection, schedule: Q01DX009 (ip), vehicle: other 105 % of control | endpoint: median survival time, dose: 25.0 mg/kg/injection, schedule: Q01DX009 (ip), vehicle: other 111 % of control | endpoint: median survival time, dose: 100.0 mg/kg/injection, schedule: Q01DX009 (ip), vehicle: other 111 % of control | endpoint: median survival time, dose: 160.0 mg/kg/injection, schedule: Q01DX009 (ip), vehicle: saline 100 % of control
